Data reported in US20240317706A1, “COMPOUNDS THAT MEDIATE PROTEIN DEGRADATION AND METHODS OF USE THEREOF” (Monte Rosa Therapeutics, Inc., priority 2021, published 2024).

Each molecule was assayed against CRBN-DDB1 (Homo sapiens, UniProt Q96SW2) (assay: Compound binding to CRBN by HTRF assay). Settings: CRBN-DDB1 2.5 nM, Cy5-Thalidomide 100 nM, 30 min; Ki from geometric mean IC50 by Cheng-Prustoff transformation.
Sequence of CRBN-DDB1 (Q96SW2 whole entry): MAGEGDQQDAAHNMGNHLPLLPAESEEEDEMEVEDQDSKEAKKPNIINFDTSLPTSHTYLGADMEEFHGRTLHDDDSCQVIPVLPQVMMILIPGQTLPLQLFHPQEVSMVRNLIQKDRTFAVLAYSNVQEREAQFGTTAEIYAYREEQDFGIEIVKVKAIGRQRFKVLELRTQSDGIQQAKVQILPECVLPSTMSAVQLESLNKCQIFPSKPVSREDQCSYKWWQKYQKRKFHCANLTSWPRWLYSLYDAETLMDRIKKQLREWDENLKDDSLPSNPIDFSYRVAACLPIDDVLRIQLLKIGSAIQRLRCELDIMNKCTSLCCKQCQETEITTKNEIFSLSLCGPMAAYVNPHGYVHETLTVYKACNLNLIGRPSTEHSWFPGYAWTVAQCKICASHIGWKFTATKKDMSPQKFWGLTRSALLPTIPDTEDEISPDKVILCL
Sequence of CRBN-DDB1 (Q16531 whole entry partner): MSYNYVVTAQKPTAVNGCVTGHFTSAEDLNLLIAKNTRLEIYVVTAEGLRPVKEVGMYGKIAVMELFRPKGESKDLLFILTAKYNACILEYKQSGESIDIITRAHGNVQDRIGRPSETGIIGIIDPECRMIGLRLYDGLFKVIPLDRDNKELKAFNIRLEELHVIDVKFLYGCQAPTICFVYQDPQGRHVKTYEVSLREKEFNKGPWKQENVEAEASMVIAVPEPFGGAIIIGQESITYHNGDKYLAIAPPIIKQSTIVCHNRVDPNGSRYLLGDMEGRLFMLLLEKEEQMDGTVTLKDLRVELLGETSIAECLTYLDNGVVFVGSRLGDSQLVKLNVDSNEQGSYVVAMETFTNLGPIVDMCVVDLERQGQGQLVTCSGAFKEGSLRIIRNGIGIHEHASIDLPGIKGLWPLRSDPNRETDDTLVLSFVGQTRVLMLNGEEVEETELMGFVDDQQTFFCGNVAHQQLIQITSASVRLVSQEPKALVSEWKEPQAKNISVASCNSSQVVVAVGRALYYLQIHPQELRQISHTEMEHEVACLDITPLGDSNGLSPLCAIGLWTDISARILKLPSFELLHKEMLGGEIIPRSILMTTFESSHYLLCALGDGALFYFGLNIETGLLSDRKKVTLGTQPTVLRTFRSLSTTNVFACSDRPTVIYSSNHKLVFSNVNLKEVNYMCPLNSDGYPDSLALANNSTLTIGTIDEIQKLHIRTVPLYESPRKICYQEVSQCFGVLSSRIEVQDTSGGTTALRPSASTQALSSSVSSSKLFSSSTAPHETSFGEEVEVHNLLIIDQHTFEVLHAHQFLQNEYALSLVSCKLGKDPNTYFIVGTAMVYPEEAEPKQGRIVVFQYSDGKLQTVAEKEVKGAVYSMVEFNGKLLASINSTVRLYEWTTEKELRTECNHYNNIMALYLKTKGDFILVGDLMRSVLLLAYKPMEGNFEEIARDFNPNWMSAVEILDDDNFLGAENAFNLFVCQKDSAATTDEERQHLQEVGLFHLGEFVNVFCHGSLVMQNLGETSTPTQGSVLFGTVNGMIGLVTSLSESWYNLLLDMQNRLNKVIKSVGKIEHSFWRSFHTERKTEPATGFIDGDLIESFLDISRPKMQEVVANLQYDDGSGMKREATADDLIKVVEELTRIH
Description: Compound activity was monitored in a Homogenous Time-Resolved Fluorescence (HTRF) assay using 1-[5-({2-[2-(2-{[2-(2,6-dioxopiperidin-3-yl)-1,3-dioxo-2,3-dihydro-1H-isoindol-4-yl]oxy}acetamido)ethoxy]ethyl}carbamoyl)pentyl]-3,3-dimethyl-2-[(1E,3E)-5-[(2E)-1,3,3-trimethyl-5-sulfo-2,3-dihydro-1H-indol-2-ylidene]penta-1,3-dien-1-yl]-3H-indol-1-ium-5-sulfonate as a fluorescent probe. Biochemical assays were conducted in Greiner white 384 well HiBase plates (Cat. No 784075-25) in 10 μL total volume. A one pot detection solution of CRBN-DDB1 (2.5 nM), Anti-His Terbium Cryptate Gold (1×, PerkinElmer Cat. #: 61HI2TLB), and Cy5-Thalidomide (100 nM, Tenova Cat.: T52461) was prepared in 20 mM HEPES, 20 mM NaCl, 0.2 mM TCEP, 0.2 mM EDTA, and 0.005% Tween20 was dispensed to each assay plate. Compounds were stored in dry, ambient temperatures at 10 mM. A 10-point, 1:3 dilution series was prepared from 10 mM stock concentrations in Echo-compatible LDV plates. 10 nL of each compound dilution series was dispensed into assays wells using an Echo 650 (Labcyte inc. USA). 10 nL of 10 mM Lenalidomide was transferred into the active-control wells for the assay and 10 nL of DMSO was transferred into the neutral-control wells. The assay was then allowed to incubate for 30 min at ambient temperature after transferring compound. Plate measurements were taken on a Pherastar FSX (BMG Labtech, Germany) using the HTRF Red filter (Ex. 337 nm, em1: 620 nm, em2: 665 nm) (Flashes: 50, Integration time: 60-400 us, Z-height: 10 mm, Ratio-multiplier: 10,000). The HTRF signal was then subsequently normalized to the neutral and active controls. Analysis and IC50 values were derived using KNIME analytics (KNIME Zurich) transformation and fitting within Collaborative Drug Discovery (Collaborative Drug Discovery USA). Ki was derived from the geometric mean of the IC50 values using the Cheng-Prustoff transformation.
In the case of `O=C1CCC(N2Cc3ccc(CNC(=O)OCC4CCC[C@H]4C(F)(F)F)cc3C2=O)C(=O)N1` (mixture of isomers) [Compound 73, rac-[(1R,2R)-2-(trifluoromethyl)cyclopentyl]methyl N-{[2-(2,6-dioxopiperidin-3-yl)-3-oxo-2,3-dihydro-1H-isoindol-5-yl]methyl}carbamate], the Ki is reported as 0.1 to 1 µM.

Each molecule was assayed against T1, CDK2 (Homo sapiens, UniProt P24941) (assay: NanoBiT assay (CDK2 degradation)). Settings: HEK293, HEK293 clonal line with CRISPR KI HiBiT tag on CDK2, Endurazine live cell substrate, 24 hours.
T1 construct: HEK293 clonal lines with CRISPR KI HiBiT tag on CDK2 proteins; host or cells: HEK293 clonal line, CRISPR knock-in HiBiT-CDK2, stably expressing LgBiT
Format: cell-based
Description: HEK293 clonal lines with CRISPR KI HiBiT tag on either CDK2 proteins and stably expressing LgBiT protein were obtained from Promega (Madison, WI). Cells were plated at 5000 cells per well using Multiflo (BioTek) in 384-well white solid bottom plates (Corning, 3570BC) in 25 ul volume in DMEM media (DMEM, high glucose, HEPES, no phenol red (ThermoFisher Scientific, 21063029)) containing 10% FBS (Corning, 35-075-CV), 1% Penicillin/Streptomycin ((ThermoFisher Scientific, 15140-122), and 1% Endurazine (Nano-Glo Endurazine Live Cell Substrate (Promega, N2571)). Cells were incubated for 16 hours at 37 C, 5% CO2. 75 nL of a compound at 30 μM were dosed into the plate using an Echo® 650 liquid handler (Labcyte). Cells were incubated at 37° C., 5% CO2 for 24 hours and then signal was read on a Pherastar FSX using “LUM plus” optic module.
Analysis was performed in Scinamic (Scinamic, Cambridge, MA). Luminescence response (R) was calculated by the formula: response=100*(S−N)/(P−N) where S is the signal of the well, N and P the mean negative and positive control values respectively of the same plate. The luminescence response was then fitted in Scinamic using a 3-parameter agonist logistic fit (hillslope=1, EC50>0, top/bottom unconstrained).
In the case of `C[C@@H]1CC[C@H](COC(=O)NCc2ccc3c(c2)C(=O)N(C2CCC(=O)NC2=O)C3)O1` (mixture of isomers) [Compound 68, rac-[(2R,5R)-5-methyloxolan-2-yl]methyl N-{[2-(2,6-dioxopiperidin-3-yl)-3-oxo-2,3-dihydro-1H-isoindol-5-yl]methyl}carbamate], the Dmax is reported as 10 to 50%. With `O=C1CCC(N2Cc3ccc(CNC(=O)OCC4CCC[C@H]4C(F)(F)F)cc3C2=O)C(=O)N1` (mixture of isomers) [Compound 73, rac-[(1R,2R)-2-(trifluoromethyl)cyclopentyl]methyl N-{[2-(2,6-dioxopiperidin-3-yl)-3-oxo-2,3-dihydro-1H-isoindol-5-yl]methyl}carbamate] the Dmax was at most 10%. Molecule `O=C1CCC(N2Cc3ccc(CNC(=O)OC[C@@H]4C[C@H]4F)cc3C2=O)C(=O)N1` (mixture of isomers) [Compound 75, rac-[(1R,2S)-2-fluorocyclopropyl]methyl N-{[2-(2,6-dioxopiperidin-3-yl)-3-oxo-2,3-dihydro-1H-isoindol-5-yl]methyl}carbamate] has a Dmax of at most 10%. `C[C@@H]1CCOC1COC(=O)NCc1ccc2c(c1)C(=O)N(C1CCC(=O)NC1=O)C2` (mixture of isomers) [Compound 76, rac-[(2R,3S)-3-methyloxolan-2-yl]methyl N-{[2-(2,6-dioxopiperidin-3-yl)-3-oxo-2,3-dihydro-1H-isoindol-5-yl]methyl}carbamate] showed a Dmax of at most 10%. `O=C1CCC(N2Cc3ccc(CNC(=O)O[C@H]4C[C@@H]5C[C@H]4CC5(F)F)cc3C2=O)C(=O)N1` (mixture of isomers) [Compound 92, rac-(1R,2R,4R)-5,5-difluorobicyclo[2.2.1]heptan-2-yl N-{[2-(2,6-dioxopiperidin-3-yl)-3-oxo-2,3-dihydro-1H-isoindol-5-yl]methyl}carbamate] was tested, and the Dmax was at most 10%. `CCC1(COC(=O)NCc2ccc3c(c2)C(=O)N(C2CCC(=O)NC2=O)C3)COC1` (stereo not drawn) [Compound 42, (3-ethyloxetan-3-yl)methyl N-{[2-(2,6-dioxopiperidin-3-yl)-3-oxo-2,3-dihydro-1H-isoindol-5-yl]methyl}carbamate] gave a Dmax of 10 to 50%. In the case of `O=C1CCC(N2Cc3ccc(CNC(=O)OCC#CC4CC4)cc3C2=O)C(=O)N1` (stereo not drawn) [Compound 44, 3-cyclopropylprop-2-yn-1-yl N-{[2-(2,6-dioxopiperidin-3-yl)-3-oxo-2,3-dihydro-1H-isoindol-5-yl]methyl}carbamate], the Dmax is reported as 10 to 50%. Molecule `CC(=O)N1CCC(COC(=O)NCc2ccc3c(c2)C(=O)N(C2CCC(=O)NC2=O)C3)C1` (stereo not drawn) [Compound 50, (1-acetylpyrrolidin-3-yl)methyl N-{[2-(2,6-dioxopiperidin-3-yl)-3-oxo-2,3-dihydro-1H-isoindol-5-yl]methyl}carbamate] has a Dmax of at most 10%. `O=C1CCC(N2Cc3ccc(CNC(=O)OCC4CCCCS4)cc3C2=O)C(=O)N1` (stereo not drawn) [Compound 53, (thian-2-yl)methyl N-{[2-(2,6-dioxopiperidin-3-yl)-3-oxo-2,3-dihydro-1H-isoindol-5-yl]methyl}carbamate] showed a Dmax of 10 to 50%. Molecule `CC(C)O[C@H]1C[C@@H](OC(=O)NCc2ccc3c(c2)C(=O)N(C2CCC(=O)NC2=O)C3)C1` (stereo partly drawn) [Compound 55, (1s,3s)-3-(propan-2-yloxy)cyclobutyl N-{[2-(2,6-dioxopiperidin-3-yl)-3-oxo-2,3-dihydro-1H-isoindol-5-yl]methyl}carbamate] has a Dmax of 10 to 50%. `COCC1(COC(=O)NCc2ccc3c(c2)C(=O)N(C2CCC(=O)NC2=O)C3)CCCC1` (stereo not drawn) [Compound 57, [1-(methoxymethyl)cyclopentyl]methyl N-{[2-(2,6-dioxopiperidin-3-yl)-3-oxo-2,3-dihydro-1H-isoindol-5-yl]methyl}carbamate] gave a Dmax of at most 10%. For `O=C1CCC(N2Cc3ccc(CNC(=O)OCC4CSC4)cc3C2=O)C(=O)N1` (stereo not drawn) [Compound 60, (thietan-3-yl)methyl N-{[2-(2,6-dioxopiperidin-3-yl)-3-oxo-2,3-dihydro-1H-isoindol-5-yl]methyl}carbamate], the Dmax was 10 to 50%. Molecule `O=C1CCC(N2Cc3ccc(CNC(=O)OC[C@H]4[C@@H]5COC[C@@H]54)cc3C2=O)C(=O)N1` (stereo partly drawn) [Compound 61, [(1R,5S,6R)-3-oxabicyclo[3.1.0]hexan-6-yl]methyl N-{[2-(2,6-dioxopiperidin-3-yl)-3-oxo-2,3-dihydro-1H-isoindol-5-yl]methyl}carbamate] has a Dmax of at most 10%. `CC1(C)[C@@H]2C[C@@H](OC(=O)NCc3ccc4c(c3)C(=O)N(C3CCC(=O)NC3=O)C4)C[C@@H]21` (stereo partly drawn) [Compound 62, (1R,3s,5S)-6,6-dimethylbicyclo[3.1.0]hexan-3-yl N-{[2-(2,6-dioxopiperidin-3-yl)-3-oxo-2,3-dihydro-1H-isoindol-5-yl]methyl}carbamate] gave a Dmax of 50 to 80%. With `CC1(C)C2CCC1(COC(=O)NCc1ccc3c(c1)C(=O)N(C1CCC(=O)NC1=O)C3)CC2` (stereo not drawn) [Compound 63, {7,7-dimethylbicyclo[2.2.1]heptan-1-yl}methyl N-{[2-(2,6-dioxopiperidin-3-yl)-3-oxo-2,3-dihydro-1H-isoindol-5-yl]methyl}carbamate] the Dmax was 10 to 50%. Work on `C[C@@H](OC(=O)NCc1ccc2c(c1)C(=O)N(C1CCC(=O)NC1=O)C2)C1CC12CC2` (stereo partly drawn) [Compound 71, (1R)-1-{spiro[2.2]pentan-1-yl}ethyl N-{[2-(2,6-dioxopiperidin-3-yl)-3-oxo-2,3-dihydro-1H-isoindol-5-yl]methyl}carbamate] yielded a Dmax of at most 10%. `O=C1CCC(N2Cc3ccc(CNC(=O)OCCC4CC4(F)F)cc3C2=O)C(=O)N1` (stereo not drawn) [Compound 78, 2-(2,2-difluorocyclopropyl)ethyl N-{[2-(2,6-dioxopiperidin-3-yl)-3-oxo-2,3-dihydro-1H-isoindol-5-yl]methyl}carbamate] was tested, and the Dmax was at most 10%. `O=C1CCC(N2Cc3ccc(CNC(=O)OCC4CCCS4(=O)=O)cc3C2=O)C(=O)N1` (stereo not drawn) [Compound 82, (1,1-dioxo-1lambda6-thiolan-2-yl)methyl N-{[2-(2,6-dioxopiperidin-3-yl)-3-oxo-2,3-dihydro-1H-isoindol-5-yl]methyl}carbamate] was tested, and the Dmax was at most 10%. For `CC1(COC(=O)NCc2ccc3c(c2)C(=O)N(C2CCC(=O)NC2=O)C3)CCCCC1` (stereo not drawn) [Compound 85, (1-methylcyclohexyl)methyl N-{[2-(2,6-dioxopiperidin-3-yl)-3-oxo-2,3-dihydro-1H-isoindol-5-yl]methyl}carbamate], the Dmax was 10 to 50%. Molecule `CC1(C)OC[C@@H](COC(=O)NCc2ccc3c(c2)C(=O)N(C2CCC(=O)NC2=O)C3)O1` (stereo partly drawn) [Compound 87, [(4S)-2,2-dimethyl-1,3-dioxolan-4-yl]methyl N-{[2-(2,6-dioxopiperidin-3-yl)-3-oxo-2,3-dihydro-1H-isoindol-5-yl]methyl}carbamate] has a Dmax of at most 10%. In the case of `CN(C(=O)OC(C)(C)C)C1CC(COC(=O)NCc2ccc3c(c2)C(=O)N(C2CCC(=O)NC2=O)C3)C1` (stereo not drawn) [Compound 96, (3-{[(tert-butoxy)carbonyl](methyl)amino}cyclobutyl)methyl N-{[2-(2,6-dioxopiperidin-3-yl)-3-oxo-2,3-dihydro-1H-isoindol-5-yl]methyl}carbamate], the Dmax is reported as 10 to 50%. `CC1(COC(=O)NCc2ccc3c(c2)C(=O)N(C2CCC(=O)NC2=O)C3)CN(C2CC2)C1` (stereo not drawn) [Compound 97, (1-cyclopropyl-3-methylazetidin-3-yl)methyl N-{[2-(2,6-dioxopiperidin-3-yl)-3-oxo-2,3-dihydro-1H-isoindol-5-yl]methyl}carbamate] gave a Dmax of at most 10%. With `CC1CN(CCOC(=O)NCc2ccc3c(c2)C(=O)N(C2CCC(=O)NC2=O)C3)C1` (stereo not drawn) [Compound 98, 2-(3-methylazetidin-1-yl)ethyl N-{[2-(2,6-dioxopiperidin-3-yl)-3-oxo-2,3-dihydro-1H-isoindol-5-yl]methyl}carbamate] the Dmax was 10 to 50%.
